Laboratory results taken from patent publication US10138225B2 (Achillion Pharmaceuticals, Inc., priority 2015, dated 2018).
pIC50: −log10 of the molar value. Where two headings read alike, the source gives them in different places.

Biological target: T1, Human Factor D (Homo sapiens, UniProt P00746)
T1 construct: purified from human serum; purchased Complement Technology, Inc; host or cells: human serum (natural protein, not recombinant)
Assay: Human Factor D Assay
Type: biochemical
Method: Human Factor D (purified from human serum, Complement Technology, Inc.) at 80 nM final concentration is incubated with test compound at various concentrations for 5 minutes at room temperature in 50 mM Tris, 1M NaCl, pH 7.5. A synthetic substrate Z-L-Lys-SBzl and DTNB (Ellman's reagent) are added to final concentrations of 100 μM each. Absorbance at 405 nm (A405) is recorded at 30 second intervals for 30 minutes using a microplate spectrophotometer. IC50 values are calculated by nonlinear regression of complement Factor D reaction rates as a function of test compound concentration.

[1] = Table 1, Factor D 80 nM, substrate Z-L-Lys-SBzl, read-out: IC50
[2] = Table 2, Factor D 80 nM, substrate Z-L-Lys-SBzl, read-out: IC50
[3] = Table 3, factor D inhibition assay, read-out: IC50 (Stars)

T1 sequence (P00746 26-253): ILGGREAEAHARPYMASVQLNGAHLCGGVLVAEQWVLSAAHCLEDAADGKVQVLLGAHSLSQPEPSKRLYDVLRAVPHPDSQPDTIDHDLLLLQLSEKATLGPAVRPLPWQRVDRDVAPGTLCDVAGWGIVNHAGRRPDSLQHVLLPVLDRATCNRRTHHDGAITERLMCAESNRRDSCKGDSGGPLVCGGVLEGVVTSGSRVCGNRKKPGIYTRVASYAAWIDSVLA

CC(=O)c1cn(CC(=O)N2C[C@H](F)C[C@H]2C(=O)NCc2cccc(Cl)c2F)c2cc(C(=O)NCC3CCN(C(=O)OC(C)(C)C)C3)ccc12 (stereo partly drawn) [Compound 50, tert-butyl 3-((3-acetyl-1-(2-((2S,4R)-2-(3-chloro-2-fluorobenzylcarbamoyl)-4-fluoropyrrolidin-1-yl)-2-oxoethyl)-1H-indole-6-carboxamido)methyl) pyrrolidine-1-carboxylate]
pIC50 [1]: > 6.00

COC(=O)C1CCN(C(=O)c2ccc3c(C(C)=O)cn(CC(=O)N4C[C@H](F)C[C@H]4C(=O)NCc4cccc(Cl)c4F)c3c2)C1 (stereo partly drawn) [Compound 51, methyl 1-(3-acetyl-1-(2-((2S,4R)-2-(3-chloro-2-fluorobenzylcarbamoyl)-4-fluoropyrrolidin-1-yl)-2-oxoethyl)-1H-indole-6-carbonyl)pyrrolidine-3-carboxylate]
pIC50 [1]: > 6.00

CC(=O)c1cn(CC(=O)N2C[C@H](F)C[C@H]2C(=O)NCc2cccc(Cl)c2F)c2cc(C(=O)N3CCC(C(=O)O)C3)ccc12 (stereo partly drawn) [Compound 52, 1-(3-acetyl-1-(2-((2S,4R)-2-(3-chloro-2-fluorobenzylcarbamoyl)-4-fluoropyrrolidin-1-yl)-2-oxoethyl)-1H-indole-6-carbonyl)pyrrolidine-3-carboxylic acid]
pIC50 [1]: > 6.00

CC(=O)c1cn(CC(=O)N2C[C@H](F)C[C@H]2C(=O)NCc2cccc(Cl)c2F)c2cc(C(=O)NS(=O)(=O)c3ccccc3)ccc12 [Compound 53, 3-acetyl-1-(2-((2S,4R)-2-(3-chloro-2-fluorobenzylcarbamoyl)-4-fluoropyrrolidin-1-yl)-2-oxoethyl)-N-(phenylsulfonyl)-1H-indole-6-carboxamide]
pIC50 [1]: > 6.00

NC(=O)c1nn(CC(=O)N2C[C@H](F)C[C@H]2C(=O)Nc2cccc(-c3ccccc3Cl)c2F)c2cc(C(=O)NS(=O)(=O)C3CC3)ccc12 [Compound 54]
pIC50 [1]: > 6.00

CC(C)(C)C(=O)Nc1nc2c(s1)c(C(N)=O)nn2CC(=O)N1C[C@H](F)C[C@H]1C(=O)Nc1cccc(-c2ccccc2Cl)c1F [Compound 55, 1-(2-((2S,4R)-2-(2′-chloro-2-fluorobiphenyl-3-ylcarbamoyl)-4-fluoropyrrolidin-1-yl)-2-oxoethyl)-5-pivalamido-1H-pyrazolo[3,4-d]thiazole-3-carboxamide]
pIC50 [2]: > 6.00

CC(C)(C)C(=O)Nc1nc2c(s1)c(C(N)=O)nn2CC(=O)N1C[C@H](F)C[C@H]1C(=O)NCc1cccc(Cl)c1F [Compound 56, 1-(2-((2S,4R)-2-(3-chloro-2-fluorobenzylcarbamoyl)-4-fluoropyrrolidin-1-yl)-2-oxoethyl)-5-pivalamido-1H-pyrazolo[3,4-d]thiazole-3-carboxamide]
pIC50 [2]: > 6.00

NC(=O)c1nn(CC(=O)N2C[C@H](F)C[C@H]2C(=O)Nc2cccc(-c3ccccc3Cl)c2F)c2cc(C(=O)NC3CC3)sc12 [Compound 57, 1-(2-((2S,4R)-2-(2′-chloro-2-fluorobiphenyl-3-ylcarbamoyl)-4-fluoropyrrolidin-1-yl)-2-oxoethyl)-N5-cyclopropyl-1H-thieno[3,2-c]pyrazole-3,5-dicarboxamide]
pIC50 [2]: > 6.00

CNC(=O)c1cc2c(s1)c(C(N)=O)nn2CC(=O)N1C[C@H](F)C[C@H]1C(=O)Nc1cccc(-c2ccccc2Cl)c1F [Compound 58]
pIC50 [2]: > 6.00

NC(=O)c1nn(CC(=O)N2C[C@H](F)C[C@H]2C(=O)Nc2cccc(-c3ccccc3Cl)c2F)c2cc(C(=O)N3CCOCC3)sc12 [Compound 59, 1-(2-((2S,4R)-2-(2′-chloro-2-fluorobiphenyl-3-ylcarbamoyl)-4-fluoropyrrolidin-1-yl)-2-oxoethyl)-5-(morpholine-4-carbonyl)-1H-thieno[3,2-c]pyrazole-3-carboxamide]
pIC50 [2]: > 6.00

NC(=O)c1nn(CC(=O)N2C[C@H](F)C[C@H]2C(=O)Nc2cccc(-c3ccccc3Cl)c2F)c2cc(C(=O)N3CCCC3)sc12 [Compound 60, 1-(2-((2S,4R)-2-(2′-chloro-2-fluorobiphenyl-3-ylcarbamoyl)-4-fluoropyrrolidin-1-yl)-2-oxoethyl)-5-(pyrrolidine-1-carbonyl)-1H-thieno[3,2-c]pyrazole-3-carboxamide]
pIC50 [2]: > 6.00

NC(=O)c1nn(CC(=O)N2C[C@H](F)C[C@H]2C(=O)Nc2cccc(-c3ccccc3Cl)c2F)c2cc(C(=O)NC3CCCC3)sc12 [Compound 61, 1-(2-((2S,4R)-2-(2′-chloro-2-fluorobiphenyl-3-ylcarbamoyl)-4-fluoropyrrolidin-1-yl)-2-oxoethyl)-N5-cyclopentyl-1H-thieno[3,2-c]pyrazole-3,5-dicarboxamide]
pIC50 [2]: > 6.00

CN(C)C(=O)c1cc2c(s1)c(C(N)=O)nn2CC(=O)N1C[C@H](F)C[C@H]1C(=O)Nc1cccc(-c2ccccc2Cl)c1F [Compound 62, 1-(2-((2S,4R)-2-(2′-chloro-2-fluorobiphenyl-3-ylcarbamoyl)-4-fluoropyrrolidin-1-yl)-2-oxoethyl)-N5,N5-dimethyl-1H-thieno[3,2-c]pyrazole-3,5-dicarboxamide]
pIC50 [2]: > 6.00

CC(=O)c1cn(CC(=O)N2C[C@H](F)C[C@H]2CCNS(=O)(=O)c2ccccc2)c2ccc(C(=O)NS(=O)(=O)C3CC3)cc12 [Compound 174, 3-acetyl-N-(cyclopropylsulfonyl)-1-(2-((2R,4R)-4-fluoro-2-(2-(phenylsulfonylamido)ethyl)pyrrolidin-1-yl)-2-oxoethyl)-1H-indole-5-carboxamide]
pIC50 [3]: < 5.00

CC(=O)c1cn(CC(=O)N2C[C@H](F)C[C@H]2C(=O)NCc2ccccc2)c2ccc(C(=O)NS(=O)(=O)C3CC3)cc12 [Compound 180, 3-acetyl-1-(2-((2S,4R)-2-(benzylcarbamoyl)-4-fluoropyrrolidin-1-yl)-2-oxoethyl)-N-(cyclopropylsulfonyl)-1H-indole-5-carboxamide]
pIC50 [3]: 5.00 to 6.00

CC(=O)c1cn(CC(=O)N2C[C@H](F)C[C@H]2C(=O)NCCc2ccccc2)c2ccc(C(=O)NS(=O)(=O)C3CC3)cc12 [Compound 185, 3-acetyl-N-(cyclopropylsulfonyl)-1-(2-((2S,4R)-4-fluoro-2-(phenethylcarbamoyl)pyrrolidin-1-yl)-2-oxoethyl)-1H-indole-5-carboxamide]
pIC50 [3]: < 5.00

CC(=O)c1cn(CC(=O)N2C[C@H](F)C[C@H]2C(=O)NCCCc2ccccc2)c2ccc(C(=O)NS(=O)(=O)C3CC3)cc12 [Compound 190, 3-acetyl-N-(cyclopropylsulfonyl)-1-(2-((2S,4R)-4-fluoro-2-((3-phenylpropyl)carbamoyl)pyrrolidin-1-yl)-2-oxoethyl)-1H-indole-5-carboxamide]
pIC50 [3]: 5.00 to 6.00

CC(=O)c1cn(CC(=O)N2C[C@H](F)C[C@H]2C(=O)NCCCCc2ccccc2)c2ccc(C(=O)NS(=O)(=O)C3CC3)cc12 [Compound 195, 3-acetyl-N-(cyclopropylsulfonyl)-1-(2-((2S,4R)-4-fluoro-2-((4-phenylbutyl)carbamoyl)pyrrolidin-1-yl)-2-oxoethyl)-1H-indole-5-carboxamide]
pIC50 [3]: < 5.00

CC(=O)c1cn(CC(=O)N2C[C@H](F)C[C@H]2C(=O)NCc2ccccc2)c2ccc(NC(=O)N3CCCC(F)(F)C3)cc12 [Compound 196, N-(3-acetyl-1-(2-((2S,4R)-2-(benzocarbamoyl)-4-fluoropyrrolidin-1-yl)-2-oxoethyl)-1H-indol-5-yl)-3,3-difluoropiperidine-1-carboxamide]
pIC50 [3]: > 6.00
